Assays:
Histone deacetylase 2 = Histone deacetylase 2 (Homo sapiens, UniProt Q92769); assay: Inhibition of human recombinant FLAG-tagged HDAC2 expressed in Sf9 cells incubated for 30 mins by Fluor De Lys assay
Histone deacetylase 1 = Histone deacetylase 1 (Homo sapiens, UniProt Q13547); assay: Inhibition of human recombinant FLAG-tagged HDAC1 expressed in HEK293F cells incubated for 30 mins by Fluor De Lys assay; assay type: cell-based
Histone deacetylase 3 = Histone deacetylase 3 (Homo sapiens, UniProt O15379); assay: Inhibition of human recombinant FLAG-tagged HDAC3 expressed in HEK293F cells incubated for 30 mins by Fluor De Lys assay; assay type: cell-based
Histone deacetylase 3, sequence (O15379 whole entry): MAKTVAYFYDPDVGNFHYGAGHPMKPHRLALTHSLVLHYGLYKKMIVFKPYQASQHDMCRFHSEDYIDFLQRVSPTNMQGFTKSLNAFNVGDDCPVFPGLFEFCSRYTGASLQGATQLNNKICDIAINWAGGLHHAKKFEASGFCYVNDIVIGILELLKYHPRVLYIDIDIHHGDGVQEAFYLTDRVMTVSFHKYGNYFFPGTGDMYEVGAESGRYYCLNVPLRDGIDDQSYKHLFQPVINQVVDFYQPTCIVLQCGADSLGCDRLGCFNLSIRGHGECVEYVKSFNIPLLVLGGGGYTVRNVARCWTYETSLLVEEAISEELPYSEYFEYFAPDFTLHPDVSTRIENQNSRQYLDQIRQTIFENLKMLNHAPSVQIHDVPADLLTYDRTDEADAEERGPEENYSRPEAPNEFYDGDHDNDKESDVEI

Histone deacetylase 1, sequence (Q13547 whole entry): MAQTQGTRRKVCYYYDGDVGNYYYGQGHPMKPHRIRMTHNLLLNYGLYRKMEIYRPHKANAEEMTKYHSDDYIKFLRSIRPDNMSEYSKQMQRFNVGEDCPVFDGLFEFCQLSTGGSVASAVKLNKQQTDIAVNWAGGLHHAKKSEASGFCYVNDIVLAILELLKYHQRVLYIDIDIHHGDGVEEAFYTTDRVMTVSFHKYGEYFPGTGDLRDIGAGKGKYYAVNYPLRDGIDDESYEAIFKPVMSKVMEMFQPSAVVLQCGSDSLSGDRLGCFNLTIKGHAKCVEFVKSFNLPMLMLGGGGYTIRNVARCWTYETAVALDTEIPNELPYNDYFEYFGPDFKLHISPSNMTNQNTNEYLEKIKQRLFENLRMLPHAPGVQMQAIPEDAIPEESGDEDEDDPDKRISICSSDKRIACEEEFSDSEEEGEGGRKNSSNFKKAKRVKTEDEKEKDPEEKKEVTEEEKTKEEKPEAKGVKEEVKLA
Histone deacetylase 2, sequence (Q92769 whole entry): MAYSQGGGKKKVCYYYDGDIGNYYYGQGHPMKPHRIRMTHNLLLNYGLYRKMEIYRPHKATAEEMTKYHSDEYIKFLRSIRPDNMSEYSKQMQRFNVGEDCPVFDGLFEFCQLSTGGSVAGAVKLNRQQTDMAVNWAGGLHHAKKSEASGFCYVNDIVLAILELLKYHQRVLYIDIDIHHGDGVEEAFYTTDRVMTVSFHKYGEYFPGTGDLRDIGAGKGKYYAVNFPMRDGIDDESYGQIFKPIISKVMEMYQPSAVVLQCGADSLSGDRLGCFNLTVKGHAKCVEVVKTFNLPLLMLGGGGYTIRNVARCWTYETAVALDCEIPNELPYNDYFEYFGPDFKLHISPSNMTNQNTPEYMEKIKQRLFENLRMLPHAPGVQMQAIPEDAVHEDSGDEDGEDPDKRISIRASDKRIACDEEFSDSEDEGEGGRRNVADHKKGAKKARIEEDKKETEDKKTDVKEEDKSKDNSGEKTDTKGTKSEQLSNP

SMILES	IC50 (Histone deacetylase 2) [nM]	IC50 (Histone deacetylase 1) [nM]	IC50 (Histone deacetylase 3) [nM]
CCC(=O)CCCCC[C@H](NC(=O)[C@H]1CC12CCN(C)CC2)c1ncc(-c2cc3ccc(N4CCCC4)nc3cc2OC)[nH]1	2	0.32	–
CCC(=O)CCCCC[C@H](NC(=O)[C@H]1CC12CCN(CC)CC2)c1ncc(-c2cc3cccnc3cc2OC)o1	–	< 1.5	< 1.5

Reference: ChEMBL document CHEMBL4825740, “Novel Histone Deacetylase Inhibitors for Treating HIV Infection” (ACS Med Chem Lett, 2021)
